Test results taken from the CheMixHub viscosity set.
± gives the uncertainty stated by the source.

Assay: xn = mol fraction of the nth substance listed

## OCCO + CCCO
298.15 K, 101 kPa, x1 = 0.442
  viscosity: 4.972 ± 0.037 mPa·s
298.15 K, 101.33 kPa, x1 = 0.0111
  viscosity: 2.005 ± 0.016 mPa·s
298.15 K, 101.33 kPa, x1 = 0.0207
  viscosity: 2.055 ± 0.016 mPa·s
298.15 K, 101.33 kPa, x1 = 0.0321
  viscosity: 2.115 ± 0.017 mPa·s
298.15 K, 101.33 kPa, x1 = 0.0482
  viscosity: 2.198 ± 0.017 mPa·s
298.15 K, 101.33 kPa, x1 = 0.0722
  viscosity: 2.331 ± 0.018 mPa·s
298.15 K, 101.33 kPa, x1 = 0.0979
  viscosity: 2.467 ± 0.019 mPa·s
298.15 K, 101.33 kPa, x1 = 0.1442
  viscosity: 2.723 ± 0.021 mPa·s
298.15 K, 101.33 kPa, x1 = 0.1912
  viscosity: 3.012 ± 0.023 mPa·s
298.15 K, 101.33 kPa, x1 = 0.2372
  viscosity: 3.32 ± 0.025 mPa·s
298.15 K, 101.33 kPa, x1 = 0.2938
  viscosity: 3.751 ± 0.028 mPa·s
298.15 K, 101.33 kPa, x1 = 0.345
  viscosity: 4.192 ± 0.031 mPa·s
298.15 K, 101.33 kPa, x1 = 0.3886
  viscosity: 4.617 ± 0.035 mPa·s
298.15 K, 101.33 kPa, x1 = 0.4295
  viscosity: 5.053 ± 0.038 mPa·s
298.15 K, 101.33 kPa, x1 = 0.4681
  viscosity: 5.512 ± 0.04 mPa·s
298.15 K, 101.33 kPa, x1 = 0.5096
  viscosity: 6.052 ± 0.043 mPa·s
298.15 K, 101.33 kPa, x1 = 0.5452
  viscosity: 6.565 ± 0.046 mPa·s
298.15 K, 101.33 kPa, x1 = 0.5843
  viscosity: 7.175 ± 0.049 mPa·s
298.15 K, 101.33 kPa, x1 = 0.6533
  viscosity: 8.397 ± 0.056 mPa·s
298.15 K, 101.33 kPa, x1 = 0.6993
  viscosity: 9.322 ± 0.061 mPa·s
298.15 K, 101.33 kPa, x1 = 0.7522
  viscosity: 10.5 ± 0.068 mPa·s
298.15 K, 101.33 kPa, x1 = 0.7998
  viscosity: 11.68 ± 0.075 mPa·s
298.15 K, 101.33 kPa, x1 = 0.84
  viscosity: 12.75 ± 0.081 mPa·s
298.15 K, 101.33 kPa, x1 = 0.8875
  viscosity: 14.13 ± 0.088 mPa·s
298.15 K, 101.33 kPa, x1 = 0.918
  viscosity: 15.08 ± 0.094 mPa·s
298.15 K, 101.33 kPa, x1 = 0.9609
  viscosity: 16.5 ± 0.1 mPa·s
298.15 K, 101.33 kPa, x2 = 0.0188
  viscosity: 17.2 ± 0.11 mPa·s
308.15 K, 101 kPa, x1 = 0.442
  viscosity: 3.67 ± 0.028 mPa·s
318.15 K, 101 kPa, x1 = 0.442
  viscosity: 2.755 ± 0.021 mPa·s

## O=C[C@H](O)[C@@H](O)[C@H](O)[C@H](O)CO + CS(C)=O
298.15 K, 101 kPa, x1 = 0.04081
  viscosity: 3.819 ± 0.2 mPa·s
298.15 K, 101 kPa, x1 = 0.08276
  viscosity: 8.234 ± 0.2 mPa·s
298.15 K, 101 kPa, x1 = 0.1291
  viscosity: 21.23 ± 0.24 mPa·s
298.15 K, 101 kPa, x1 = 0.1784
  viscosity: 62.65 ± 0.37 mPa·s
308.15 K, 101 kPa, x1 = 0.04081
  viscosity: 2.988 ± 0.2 mPa·s
308.15 K, 101 kPa, x1 = 0.08276
  viscosity: 5.977 ± 0.2 mPa·s
308.15 K, 101 kPa, x1 = 0.1291
  viscosity: 13.9 ± 0.21 mPa·s
308.15 K, 101 kPa, x1 = 0.1784
  viscosity: 36.04 ± 0.28 mPa·s
318.15 K, 101 kPa, x1 = 0.04081
  viscosity: 2.408 ± 0.2 mPa·s
318.15 K, 101 kPa, x1 = 0.08276
  viscosity: 4.525 ± 0.2 mPa·s
318.15 K, 101 kPa, x1 = 0.1291
  viscosity: 9.672 ± 0.21 mPa·s
318.15 K, 101 kPa, x1 = 0.1784
  viscosity: 22.4 ± 0.23 mPa·s

## NCc1ccccc1 + CC(C)CCO
298.15 K, 101.33 kPa, x1 = 0.0999
  viscosity: 3.425 ± 0.043 mPa·s
298.15 K, 101.33 kPa, x1 = 0.1999
  viscosity: 3.149 ± 0.04 mPa·s
298.15 K, 101.33 kPa, x1 = 0.3
  viscosity: 2.901 ± 0.037 mPa·s
298.15 K, 101.33 kPa, x1 = 0.4
  viscosity: 2.684 ± 0.034 mPa·s
298.15 K, 101.33 kPa, x1 = 0.5
  viscosity: 2.474 ± 0.031 mPa·s
298.15 K, 101.33 kPa, x1 = 0.6
  viscosity: 2.284 ± 0.029 mPa·s
298.15 K, 101.33 kPa, x1 = 0.7
  viscosity: 2.103 ± 0.026 mPa·s
298.15 K, 101.33 kPa, x1 = 0.8
  viscosity: 1.941 ± 0.024 mPa·s
298.15 K, 101.33 kPa, x1 = 0.9
  viscosity: 1.806 ± 0.022 mPa·s
303.15 K, 101.33 kPa, x1 = 0.0999
  viscosity: 2.914 ± 0.037 mPa·s
303.15 K, 101.33 kPa, x1 = 0.1999
  viscosity: 2.672 ± 0.034 mPa·s
303.15 K, 101.33 kPa, x1 = 0.3
  viscosity: 2.455 ± 0.031 mPa·s
303.15 K, 101.33 kPa, x1 = 0.4
  viscosity: 2.259 ± 0.029 mPa·s
303.15 K, 101.33 kPa, x1 = 0.5
  viscosity: 2.099 ± 0.026 mPa·s
303.15 K, 101.33 kPa, x1 = 0.6
  viscosity: 1.937 ± 0.024 mPa·s
303.15 K, 101.33 kPa, x1 = 0.7
  viscosity: 1.803 ± 0.023 mPa·s
303.15 K, 101.33 kPa, x1 = 0.8
  viscosity: 1.683 ± 0.021 mPa·s
303.15 K, 101.33 kPa, x1 = 0.9
  viscosity: 1.582 ± 0.02 mPa·s
308.15 K, 101.33 kPa, x1 = 0.0999
  viscosity: 2.536 ± 0.032 mPa·s
308.15 K, 101.33 kPa, x1 = 0.1999
  viscosity: 2.319 ± 0.029 mPa·s
308.15 K, 101.33 kPa, x1 = 0.3
  viscosity: 2.142 ± 0.027 mPa·s
308.15 K, 101.33 kPa, x1 = 0.4
  viscosity: 1.979 ± 0.025 mPa·s
308.15 K, 101.33 kPa, x1 = 0.5
  viscosity: 1.833 ± 0.023 mPa·s
308.15 K, 101.33 kPa, x1 = 0.6
  viscosity: 1.706 ± 0.021 mPa·s
308.15 K, 101.33 kPa, x1 = 0.7
  viscosity: 1.602 ± 0.02 mPa·s
308.15 K, 101.33 kPa, x1 = 0.8
  viscosity: 1.51 ± 0.019 mPa·s
308.15 K, 101.33 kPa, x1 = 0.9
  viscosity: 1.441 ± 0.018 mPa·s

## S=C=S + CCOC(C)=O
298.15 K, 101 kPa, x2 = 0.1445
  viscosity: 0.367 ± 0.005 mPa·s
298.15 K, 101 kPa, x2 = 0.3581
  viscosity: 0.389 ± 0.005 mPa·s
298.15 K, 101 kPa, x2 = 0.6307
  viscosity: 0.416 ± 0.006 mPa·s

## CCCCCCn1cc[n+](C)c1.[Cl-] + CN1CCCC1=O
293.15 K, 100 kPa, x1 = 0.0917
  viscosity: 4.165 ± 0.18 mPa·s
293.15 K, 100 kPa, x1 = 0.3673
  viscosity: 49.65 ± 2.1 mPa·s
298.15 K, 100 kPa, x1 = 0.1861
  viscosity: 8.485 ± 0.36 mPa·s
303.15 K, 100 kPa, x1 = 0.3673
  viscosity: 31.75 ± 1.3 mPa·s
308.15 K, 100 kPa, x1 = 0.1861
  viscosity: 6.465 ± 0.27 mPa·s

## CCCCCC(C)O (stereo not given) + CCCCCCCCCCCC
298.15 K, 101 kPa, x2 = 0.0554
  viscosity: 4.35 ± 0.06 mPa·s
298.15 K, 101 kPa, x2 = 0.0998
  viscosity: 3.85 ± 0.06 mPa·s
298.15 K, 101 kPa, x2 = 0.1555
  viscosity: 3.3 ± 0.06 mPa·s
298.15 K, 101 kPa, x2 = 0.1998
  viscosity: 2.92 ± 0.06 mPa·s
298.15 K, 101 kPa, x2 = 0.2554
  viscosity: 2.51 ± 0.06 mPa·s
298.15 K, 101 kPa, x2 = 0.2998
  viscosity: 2.23 ± 0.06 mPa·s
298.15 K, 101 kPa, x2 = 0.3554
  viscosity: 1.94 ± 0.06 mPa·s
298.15 K, 101 kPa, x2 = 0.4
  viscosity: 1.74 ± 0.06 mPa·s
298.15 K, 101 kPa, x2 = 0.4555
  viscosity: 1.54 ± 0.06 mPa·s
298.15 K, 101 kPa, x2 = 0.4999
  viscosity: 1.42 ± 0.06 mPa·s
298.15 K, 101 kPa, x2 = 0.5554
  viscosity: 1.3 ± 0.06 mPa·s
298.15 K, 101 kPa, x2 = 0.5998
  viscosity: 1.22 ± 0.06 mPa·s
298.15 K, 101 kPa, x2 = 0.6554
  viscosity: 1.16 ± 0.06 mPa·s
298.15 K, 101 kPa, x2 = 0.6998
  viscosity: 1.12 ± 0.06 mPa·s
298.15 K, 101 kPa, x2 = 0.7553
  viscosity: 1.09 ± 0.06 mPa·s
298.15 K, 101 kPa, x2 = 0.7999
  viscosity: 1.08 ± 0.06 mPa·s
298.15 K, 101 kPa, x2 = 0.8554
  viscosity: 1.07 ± 0.06 mPa·s
298.15 K, 101 kPa, x2 = 0.8995
  viscosity: 1.06 ± 0.06 mPa·s
298.15 K, 101 kPa, x2 = 0.9546
  viscosity: 1.11 ± 0.06 mPa·s

## CCCCCCCCCCCCCCCCCC + CCCCCCC
298 K, 101 kPa, x2 = 0.5
  viscosity: 1.73 ± 0.045 mPa·s
318 K, 101 kPa, x2 = 0.5
  viscosity: 1.241 ± 0.033 mPa·s

## S=C=S + c1ccccc1
298.15 K, 101 kPa, x2 = 0.08675
  viscosity: 0.376 ± 0.005 mPa·s
298.15 K, 101 kPa, x2 = 0.3427
  viscosity: 0.446 ± 0.006 mPa·s
298.15 K, 101 kPa, x2 = 0.7541
  viscosity: 0.544 ± 0.007 mPa·s
